The text below walks through data of patent US20120189579A1 (priority 2009, published 2012).

Series [1] concerns the target T1, HCV NS5BΔ21/Gal4-DBD fusion protein (Hepatitis C virus genotype 1b, UniProt Q9WMX2).
T1 construct: The protein was expressed with a 21 amino acid C-terminal deletion to remove transmembrane domain; expressed in transfected cells; host or cells: Huh-7 (transient transfection)
Put plainly: 3D-SCREEN assay (NS5B reporter gene assay in Huh-7 cells). It is filed as cell-based, HCV genotype 1b. The method, then:
Human Hepatoma Huh-7 cell line was maintained in DMEM/HAMF-12 supplemented with 10% SVF, 4 mM glutamine, […] Na pyruvate, 1% penistreptomycine. HCV replicon containing Huh-7 cell lines Huh-9.13 and Luc Neo ET (Reblikon) were maintained in DMEM supplemented with 10% SVF, 2 mM glutamine, and 1×NEAA, 100 U/ml penicillin, and 100 μg/ml streptomycine. Replicon cells were maintained in medium supplemented with 1 mg/ml G418 for replicon Huh-9.13 and 0.5 mg/ml for Luc Neo et replicon unless indicated otherwise. Huh-7 and HCV replicon cell lines were maintained at 37° C. and 5% CO2 in a humidified atmosphere. Cells were dissociated at sub confluence with trypsin EDTA 1×.
cDNA encoding HCV NS5B genotype 1b, was cloned in frame with Gal4-DNA Binding Domain. The protein was expressed with a 21 amino acid C-terminal deletion to remove transmembrane domain. Expression of NS5BΔ21/Gal4 DBD fusion protein was under control of SV40 early promoter. 3D-Sensor peptide was cloned in frame with VP16 activation domain. Expression of 3D-Sensor/VP16 AD fusion protein was under control of CMV promoter. Expression of the firefly luciferase reporter gene was inducible by the [Target protein/conformation sensitive peptide/VP16AD] complex.
It is a single-target, cell based assay. Briefly, expression of a reporter gene depends on the interaction of a short peptide, thereafter named 3D-Sensor, and native conformation of the target protein. Whenever the conformation of the target protein is modified, interaction between 3D-sensor and target protein is disrupted and reporter gene is not expressed anymore. Conformation modifiers are identified by loss of expression of reporter gene. NS5B 3D-Screen platform was generated in Huh-7 cell lines by transient transfection of three expression vectors encoding respectively • (i) HCV NS5BΔ21/Gal4-DBD fusion protein • (ii) the 3D-sensor peptide 14/VP16 fusion protein • (iii) the firefly luciferase reporter gene
Huh-7 cells were dissociated the day before transfection and seeded in T175 flasks at a density of 10^7 cells in 30 ml culture medium. Equimolar ratios of vectors were transfected in cell according to optimized jetPEI transfection protocol (PolyPlus Transfection, Illkirch, France) and 10 μg total DNA/10^6 cells. Transfection was performed for 2 hours at 37° C. and 5% CO2 in a humidified atmosphere. After two hours cells were dissociated and seeded in 96 wells plates at a density of 25,000 cells per well and 90 μl culture medium. 10 μl of compounds to be tested were added 2 hours after seeding. Final concentration of DMSO was 1%. Cells were incubated in the presence of compounds for 24 hours after which expression of firefly luciferase reporter gene was quantified. Briefly, culture medium was removed and cells were lysed by addition of 100 μl of lysis buffer containing 125 mM Tris Phosphate ph 7.8, 10 mM EDTA, 5 mM DTT, 50% glycerol and 5% Triton. Plates were vortexed 10 min at 1300 rpm. Cell lysat was transferred in OpaqueWhite Assay 96 well Flat Bottom plates. 100 μl of luciferin solution 1× were added to each well. Luciferin solution contained 40 mM Tris Phosphate ph 7.8, 0.2 mM EDTA, 67 mM DTT, 2.14 mM MgCl2, 5.4 mM MgSO4, 4.7×10^−4 M luciferin, 5.3×10^−4 M ATP and 2.7×10^−4 M Acetyl co enzyme A. Luminescence was immediately measured with Berthold Microlumat Plus LB 96V luminometer with an integration of 0.5 sec. Inhibition was calculated using the formula: % inhibition=(1−(read/average max))*100. Average max=signal in absence of compound
(In general: Reporter assays use an easily measured gene product as a stand-in for the process of interest.)

In general, EC50 refers to the concentration that produces a half-maximal response. In general, melting point refers to the temperature of the solid-liquid transition. The compound `CC(C)c1ccc(C(=O)C2=C(O)C(=O)N(c3ncc(Sc4ccc([N+](=O)[O-])cc4)s3)C2c2ccc(OC(F)(F)F)cc2)cc1` (stereo not shown) [Example 131, 3-hydroxy-4-(4-isopropyl-benzoyl)-1-[5-(4-nitro-phenylsulfanyl)-thiazol-2-yl]-5-(4-trifluoromethoxy-phenyl)-1,5-dihydro-pyrrol-2-one] came in with a melting point of 238 °C. This compound came in with an EC50 in series [1] of 13 µM.
For `COc1ccc(C(=O)C2=C(O)C(=O)N(c3nnc(C(C)C)s3)C2c2ccc(C(C)(C)C)cc2)cc1` (stereo not shown) [Example 35, 5-(4-tert-butyl-phenyl)-3-hydroxy-1-(5-isopropyl-[1,3,4]thiadiazol-2-yl)-4-(4-methoxy-benzoyl)-1,5-dihydro-pyrrol-2-one], in that order: 257 °C and 4 µM.
In turn, `COc1ccc(C(=O)C2=C(O)C(=O)N(c3nnc(C)s3)C2c2ccc(OC(F)(F)F)cc2)cc1` (stereo not shown) [Example 20, 3-hydroxy-4-(4-methoxy-benzoyl)-1-(5-methyl-[1,3,4]thiadiazol-2-yl)-5-(4-trifluoromethoxy-phenyl)-1,5-dihydro-pyrrol-2-one] gave a melting point of 245 to 247 °C. Moreover, the EC50 in series [1] was found to be 4 µM.
In the same order, the values of `COc1ccc(C(=O)C2=C(O)C(=O)N(c3nncs3)C2c2ccc(C(C)(C)C)cc2)cc1` (stereo not shown) [Example 18, 5-(4-tert-butyl-phenyl)-3-hydroxy-4-(4-methoxy-benzoyl)-1-[1,3,4]thiadiazol-2-yl-1,5-dihydro-pyrrol-2-one] are 289 to 291 °C and 7 µM.
For `CON=C(C1=C(O)C(=O)N(c2ncc(S(=O)(=O)c3ccc([N+](=O)[O-])cc3)s2)C1c1ccc(C(C)C)cc1)c1ccc(C)cc1` (mixture of isomers) [Example 49, 3-hydroxy-5-(4-isopropyl-phenyl)-4-{[methoxyimino]-p-tolyl-methyl}-1-[5-(4-nitro-benzenesulfonyl)-thiazol-2-yl]-1,5-dihydro-pyrrol-2-one], in that order: 156 °C and 4 µM.
For `COC(=O)c1ccc(C2C(C(=O)c3ccc(C)cc3)=C(O)C(=O)N2c2ncc(S(=O)(=O)c3ccc([N+](=O)[O-])cc3)s2)cc1` (stereo not shown) [Example 4, 4-{4-hydroxy-3-(4-methyl-benzoyl)-1-[5-(4-nitro-benzenesulfonyl)-thiazol-2-yl]-5-oxo-2,5-dihydro-1H-pyrrol-2-yl}-benzoic acid methyl ester], in that order: 249 to 251 °C and 10 µM.
`Cc1ccc(C(=O)C2=C(O)C(=O)N(c3ncc(S(=O)(=O)N(C)C)s3)C2c2ccc(C(C)C)cc2)cc1` (stereo not shown) [Example 39, 2-[3-hydroxy-5-(4-isopropyl-phenyl)-4-(4-methyl-benzoyl)-2-oxo-2,5-dihydro-pyrrol-1-yl]-thiazole-5-sulfonic acid dimethylamide] gave a melting point of 237 to 241 °C. In series [1], this compound returned an EC50 of 16 µM.
Turning to `Cc1ccc(C(=O)C2=C(O)C(=O)N(c3ncc(S(=O)(=O)N4CCOCC4)s3)C2c2ccc(C(C)C)cc2)cc1` (stereo not shown) [Example 41, 3-hydroxy-5-(4-isopropyl-phenyl)-4-(4-methyl-benzoyl)-1-[5-(morpholine-4-sulfonyl)-thiazol-2-yl]-1,5-dihydro-pyrrol-2-one], the melting point lay within 247 to 252 °C. The compound also gave an EC50 in series [1] of 16.3 µM.
